Assay results published in patent US8912213B2, “Synthesis and use of dual tyrosyl-DNA phosphodiesterase I (TDP1)- topoisomerase I (TOP1) inhibitors” (Purdue Research Foundation, priority 2012, dated 2014).
Read-outs that look alike come from different tables or passages of the source.

Tests used:
HCT-116 = experiment: NCI screen cytotoxicity, colon HCT-116; type: cell-based; conditions: Homo sapiens, 50% growth inhibition
HOP-62 = experiment: NCI screen cytotoxicity, lung HOP-62; type: cell-based; conditions: Homo sapiens, 50% growth inhibition
UACC-62 = experiment: NCI screen cytotoxicity, melanoma UACC-62; type: cell-based; conditions: Homo sapiens, 50% growth inhibition
SF-539 = experiment: NCI screen cytotoxicity, CNS SF-539; type: cell-based; conditions: Homo sapiens, read-out: Cytotoxicity (GI50 in μM) CNS SF-539; 50% growth inhibition
MDA-MB-435 = experiment: NCI screen cytotoxicity, breast MDA-MB-435; type: cell-based; conditions: Homo sapiens, MDA-MB-435, read-out: Cytotoxicity (GI50 in μM) breast MDA-MB-435; 50% growth inhibition
OVCAR-3 = experiment: NCI screen cytotoxicity, ovarian OVCAR-3; conditions: Homo sapiens, OVCAR-3, read-out: Cytotoxicity (GI50 in μM) ovarian OVCAR-3
DU-145 = experiment: NCI screen cytotoxicity, prostate DU-145; type: cell-based; conditions: Homo sapiens, DU-145, read-out: Cytotoxicity (GI50 in μM) prostate DU-145; 50% growth inhibition
SN12C = experiment: NCI screen cytotoxicity, renal SN12C; type: cell-based; conditions: Homo sapiens, 50% growth inhibition
[1] = test system: all human cancer cell lines successfully tested; experiment: NCI screen, mean graph midpoint (MGM) for growth inhibition; conditions: Homo sapiens
Tdp1 [2] = target: T1, Tdp1 (Homo sapiens (Human), UniProt Q9NUW8); experiment: Gel-based assay measuring the inhibition of recombinant Tdp1; type: biochemical;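 further: 5′-32P-labeled single-stranded DNA with 3′-phosphotyrosine incubated with 5 pM enzyme for 15 min at room temperature, inhibition seen as loss of 3′-phosphate product band by densitometry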
T1 sequence (Q9NUW8 whole entry): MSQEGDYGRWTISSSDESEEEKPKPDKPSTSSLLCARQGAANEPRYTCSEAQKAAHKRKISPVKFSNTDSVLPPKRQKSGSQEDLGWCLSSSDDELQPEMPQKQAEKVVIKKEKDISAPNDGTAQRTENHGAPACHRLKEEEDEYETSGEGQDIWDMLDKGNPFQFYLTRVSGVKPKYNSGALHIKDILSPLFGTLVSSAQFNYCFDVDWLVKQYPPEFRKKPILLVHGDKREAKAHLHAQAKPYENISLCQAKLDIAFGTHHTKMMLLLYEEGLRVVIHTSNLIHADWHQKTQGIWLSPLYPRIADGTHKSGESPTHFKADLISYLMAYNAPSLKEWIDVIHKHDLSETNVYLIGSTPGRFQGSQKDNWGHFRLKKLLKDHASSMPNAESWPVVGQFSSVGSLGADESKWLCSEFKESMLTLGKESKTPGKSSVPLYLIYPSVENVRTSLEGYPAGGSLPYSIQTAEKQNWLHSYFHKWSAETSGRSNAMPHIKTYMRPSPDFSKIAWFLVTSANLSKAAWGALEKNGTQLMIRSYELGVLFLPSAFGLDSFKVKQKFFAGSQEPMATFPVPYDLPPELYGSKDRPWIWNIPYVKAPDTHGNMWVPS
Description: Tdp1 inhibitory activity was measured by the drug's ability to inhibit the hydrolysis of the phosphodiester linkage between tyrosine and the 3′-end of the DNA substrate, and to prevent the generation of an oligonucleotide with a free 3′-phosphate (N14P). Therefore, the disappearance of the gel band for N14P indicated Tdp1 inhibition.
Gel-Based Assay Measuring the Inhibition of Recombinant Tdp1. A 5′-[^32P]-labeled single-stranded DNA oligonucleotide containing a 3′-phosphotyrosine (N14Y) was generated as described by Dexheimer et al. The DNA substrate was then incubated with 5 pM recombinant Tdp1 in the absence or presence of inhibitor for 15 min at room temperature in a buffer containing 50 mM Tris HCl, pH 7.5, 80 mM KCl, 2 mM EDTA, 1 mM DTT, 40 μg/ml BSA and 0.01% Tween-20. […] Gel images were scanned using a Typhoon 8600 (GE Healthcare) and densitometric analyses were performed using the ImageQuant software (GE Healthcare).

[3] = target: endogenous human Tdp1 in whole cell extract (Homo sapiens (Human), UniProt Q9NUW8); experiment: Gel-based assay measuring the inhibition of endogenous human Tdp1 in whole cell extract; type: biochemical; conditions: human Tdp1 in whole cell extract (WCE)
Chain of endogenous human Tdp1 in whole cell extract (Q9NUW8 whole entry): as above
Description: Gel-Based Assay Measuring the Inhibition of Endogenous Human Tdp1 in Whole Cell Extract. 1×10^7 DT40 knockout cells for chicken Tdp1 and complemented with human Tdp1 were collected, washed and centrifuged. Cell pellet was then resuspended with 100 μL of CellLytic M Cell Lysis Reagent (SIGMA-Aldrich C2978). After 15 min, the lysate was centrifuged at a 12,000 g for 10 min and the supernatant was transferred to a new tube. Protein concentration was determined using a nanodrop spectrophotometer (Invitrogen) and the whole cell extract was stored at −80° C. […] Reactions were then treated similarly to the recombinant enzyme containing samples (see section above).
All compounds were first tested in gel based assays for Tdp1 inhibition using recombinant (rec.) human Tdp1 and only the active compounds were tested for human Tdp1 inhibition in whole cell extract (WCE). […] was included in all experiments as positive control.

Human recombinant Top1 = Human recombinant Top1 (Homo sapiens (Human), UniProt P11387); experiment: Topoisomerase I-mediated DNA cleavage reactions; type: biochemical; conditions: for Top1 inhibition (semiquantitative scale): series (A), relative to 1 μM camptothecin; for Top1 (compound-induced DNA cleavage, semiquantitative scale): series (B), relative to 1 μM camptothecin (90) or MJ-III-65 (91);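 on all read-outs here: 3′-end radiolabeled DNA substrate (about 2 nM) incubated with recombinant Top1 and compound for 20 min at 25 °C, cleavage products resolved by denaturing PAGE and phosphoimaging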
Chain of Human recombinant Top1 (P11387 whole entry): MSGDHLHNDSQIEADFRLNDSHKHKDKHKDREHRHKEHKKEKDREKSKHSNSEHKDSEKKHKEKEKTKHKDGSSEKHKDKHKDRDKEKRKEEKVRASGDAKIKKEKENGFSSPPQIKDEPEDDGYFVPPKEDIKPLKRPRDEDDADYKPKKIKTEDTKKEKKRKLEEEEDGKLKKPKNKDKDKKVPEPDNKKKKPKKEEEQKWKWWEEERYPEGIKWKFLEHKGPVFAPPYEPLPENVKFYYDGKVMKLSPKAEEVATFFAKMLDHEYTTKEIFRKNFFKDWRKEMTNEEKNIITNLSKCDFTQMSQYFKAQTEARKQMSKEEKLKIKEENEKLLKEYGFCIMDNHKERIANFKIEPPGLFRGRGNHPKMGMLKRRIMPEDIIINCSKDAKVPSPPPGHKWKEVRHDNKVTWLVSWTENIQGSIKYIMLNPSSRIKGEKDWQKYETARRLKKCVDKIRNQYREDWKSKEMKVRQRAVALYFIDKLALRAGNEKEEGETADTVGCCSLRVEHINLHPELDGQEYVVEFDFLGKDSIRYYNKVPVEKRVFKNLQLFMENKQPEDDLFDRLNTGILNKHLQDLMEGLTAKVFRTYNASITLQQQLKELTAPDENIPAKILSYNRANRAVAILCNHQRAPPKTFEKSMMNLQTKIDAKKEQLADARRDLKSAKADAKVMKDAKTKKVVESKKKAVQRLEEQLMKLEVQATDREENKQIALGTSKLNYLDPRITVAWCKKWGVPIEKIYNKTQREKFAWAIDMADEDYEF
Description: Additionally, all indenoisoquinoline sulfonates and sulfonamides were tested for Top1 cleavage complex poisoning in a Top1-mediated DNA cleavage assay.
Topoisomerase I-Mediated DNA Cleavage Reactions. Human recombinant Top1 was purified from baculovirus as previously described. DNA cleavage reactions were prepared as previously reported with the exception of the DNA substrate. […] Unincorporated [^32P]dGTP was removed using mini Quick Spin DNA columns (Roche, Indianapolis, Ind.), and the eluate containing the 3′-end-labeled DNA substrate was collected. Approximately 2 nM radiolabeled DNA substrate was incubated with recombinant Top1 in 20 μL of reaction buffer [10 mM Tris-HCl (pH 7.5), 50 mM KCl, 5 mM MgCl2, 0.1 mM EDTA, and 15 μg/mL BSA] at 25° C. for 20 min in the presence of various concentrations of compounds. The reactions were terminated by adding SDS (0.5% final concentration) followed by the addition of two volumes of loading dye (80% formamide, 10 mM sodium hydroxide, 1 mM sodium EDTA, 0.1% xylene cyanol, and 0.1% bromphenol blue). Aliquots of each reaction mixture were subjected to 20% denaturing PAGE. Gels were dried and visualized by using a phosphoimager and ImageQuant software (Molecular Dynamics).
Topoisomerase I-Mediated DNA Cleavage Reactions. Top1 reactions were performed as recently described. […] The reactions were terminated by adding SDS (0.5% final concentration) followed by the addition of two volumes of loading dye (80% formamide, 10 mM sodium hydroxide, 1 mM sodium EDTA, 0.1% xylene cyanol, and 0.1% bromphenol blue). Reactions were subjected to 20% denaturing PAGE. Gels were dried and visualized by using a Typhoon 8600 and ImageQuant software (Molecular Dynamics).

Tdp1 [4] = target: T1, Tdp1; conditions: known inhibitor; cited from earlier work
Tdp1 [5] = target: T1, Tdp1; experiment: Surface plasmon resonance analysis; type: binding; conditions: immobilized Tdp1
Description: Surface Plasmon Resonance Analysis. Binding experiments were performed on a Biacore T100 instrument (GE, Piscataway N.J.). Tdp1 was amine coupled to a CM5 sensor chip (GE Healthcare, Piscataway N.J.). […] (EDC), N-hydroxysuccinimide (NHS) and ethanolamine were purchased from GE Heathcare, (Piscataway N.J.). Neutravidin was obtained from Pierce. In order to protect the amine groups within the active site from modification, Tdp1 was bound with a 14-base oligonucleotide before coupling to the surface. […] The CM5 chip surface was activated for 7 min. with 0.1 M NHS and 0.4 M EDC at a flow rate of 20 μL/min and Tdp1-oligonucleotide mixture was injected until approximately 4000 RU's was attached. Activated amine groups were quenched with an injection of 1 M solution of ethanolamine pH 8.0 for 7 min. Any bound oligonucleotide was removed by washing the surface with 1 M NaCl. A reference surface was prepared in the same manner without coupling of Tdp1. […] Following compound injections, the surface was regenerated with a 30 second injection 1 M NaCl, a 30 second injection of 50% DMSO (v/v) and a 30 second running buffer injection. Each cycle of compound injection was followed by buffer cycle for referencing purposes. A DMSO calibration curve was included to correct for refractive index mismatches between the running buffer and compound dilution series.
Surface Plasmon Resonance Analysis. […]

Row | Structure (SMILES) | GI50 (HCT-116) [µM] | GI50 (HOP-62) [µM] | GI50 (UACC-62) [µM] | GI50 (SF-539) [µM] | GI50 (MDA-MB-435) [µM] | GI50 (OVCAR-3) [µM] | GI50 (DU-145) [µM] | GI50 (SN12C) [µM] | GI50 ([1]; read-out: MGM (μM)) [µM] | IC50 (Tdp1 [2]) [µM] | IC50 [3] [µM] | Top1 inhibition (semiquantitative scale) (Human recombinant Top1) | GI50 ([1]; read-out: MGM GI50) [µM] | Tdp1 inhibition (in words) (Tdp1 [4]) | Tdp1 inhibitory activity (in words) (Tdp1 [2]) | IC50 (Tdp1 [2]; read-out: Tdp1 (μM) IC50) [µM] | binding to Tdp1 by surface plasmon resonance (Tdp1 [5]) | Top1 (compound-induced DNA cleavage, semiquantitative scale) (Human recombinant Top1) | IC50 (Tdp1 [2]; series (B), determined by quadruplicate, read-out: Tdp1 (μM) IC50) [µM]
1 | NCCCn1c2c(c3ccc(N)cc3c1=O)C(=O)c1ccccc1-2 [Compound 62 of (B)] | 0.18 | 0.27 | 0.3 | 0.34 | 0.23 | 0.13 | 0.12 | 0.23 | 0.16 |  |  |  |  |  |  |  |  |  | 
2 | O=C1c2ccccc2-c2c1c1ccccc1c(=O)n2CCCNCCCNCCCn1c2c(c3ccccc3c1=O)C(=O)c1ccccc1-2 [Compound 145 of (A), Bis-1,3-{(5,6-dihydro-5,11-diketo-11 H-indeno[1,2-c]isoquinoline)-6-propyl-amino}propane Bis(trifluoroacetate)] |  |  |  |  |  |  |  |  |  | 1.5 | 1.9 | ++++ | 0.394 |  |  |  |  |  | 
3 | [O]=[V]([O-])([O-])[O-] [vanadate] |  |  |  |  |  |  |  |  |  |  |  |  |  | inhibition at millimolar concentrations |  |  |  |  | 
4 | CCOC(=O)CNc1ccc2c3c(n(CCCN)c(=O)c2c1)-c1ccccc1C3=O.Cl [Compound 40 of (B), Ethyl 2-[(6-(3-Aminopropyl)-5,11-dioxo-6,11-dihydro-5H-indeno[1,2-c]isoquinolin-3-yl)amino]acetate Hydrochloride] | 0.44 | 0.93 | 2.25 | 8.91 | 3.05 | 3.12 | 1.68 | 1.75 | 1.69 |  |  |  |  |  | active | 11 ± 5 |  |  | 
5 | Cl.NCCCn1c2c(c3ccccc3c1=O)C(=O)c1ccccc1-2 [Compound 70 of (A)] |  |  |  |  |  |  |  |  |  |  |  | +++ (between 75% and 95% activity) |  |  |  |  | direct binding |  | 
6 | COc1ccc2c(c1)-c1c(c3ccc([N+](=O)[O-])cc3c(=O)n1CCCN)C2=O.Cl [Compound 51 of (B), 6-(3-Aminopropyl)-5,6-dihydro-8-methoxy-3-nitro-5,11-dioxo-11H-indeno[1,2-c]isoquinoline Hydrochloride] | 0.06 |  |  | 0.61 | 0.58 | 0.54 | 0.18 | 0.15 | 0.17 ± 0.017 |  |  |  |  |  |  | 15 ± 3 |  | ++ | 
7 | Cl.NCCCn1c2c(c3ccc(NCC(=O)O)cc3c1=O)C(=O)c1ccccc1-2 [Compound 43 of (B), 2-((6-(3-Aminopropyl)-5,11-dioxo-6,11-dihydro-5H-indeno[1,2-c]isoquinolin-3-yl)amino)acetic Acid Hydrochloride] | 0.33 | 0.65 | 0.72 | 1.79 | 1.14 | 1.6 | 1.51 | 0.49 | 0.87 ± 0.014 |  |  |  |  |  |  |  |  | 0 | 5 ± 1.4
